# Assay results as given in paper PMC4072025 (Cancer chemotherapy and pharmacology, 2013).
# Entries after “also recorded” stand apart in the source; their conditions may differ.
# What was measured:
# [1] = system: ER-positive breast cancer; settings: ER-positive patients with breast cancer; cited from earlier work
# [2] = Part I dose escalation to define MTD and DLTs of lapatinib plus everolimus; type: in vivo, human; settings: once daily po
# [3] = Steady-state lapatinib PK in plasma, alone and with everolimus
# [4] = cited from earlier work
# [5] = Steady-state everolimus PK in whole blood, alone and with lapatinib; type: in vivo, human; settings: for Everolimus Tmax % change: p=0.06; for Tmax: Everolimus Tmax, mean (95% CI)
# [6] = Phase I/II trial of everolimus and imatinib; cited from earlier work
# [7] = Day 19 with everolimus vs Day 7 alone
# [8] = Day 19 with lapatinib vs Day 7 alone
smiles,measurement,setting,value
C=C1C[C@@H]2[C@H](CC[C@]3(C)C(=O)CC[C@@H]23)[C@@]2(C)C=CC(=O)C=C12 [exemestane],Progression-free survival,[1],2.8 months
CS(=O)(=O)CCNCc1ccc(-c2ccc3ncnc(Nc4ccc(OCc5cccc(F)c5)c(Cl)c4)c3c2)o1 [lapatinib],Maximum tolerated dose (MTD) of lapatinib in the combination,[2]; combined with everolimus 5 mg,1250 mg
same,Lapatinib Cmax,"[3]; Day 19, lapatinib + everolimus, steady state, plasma, mean (95% CI)",2520 (2020–3130) μg/L
same,Lapatinib AUC 0-inf % change,[3]; [7],essentially unchanged
same,Lapatinib Cmax % change,[3]; [7],+7%
same,Lapatinib Tmax % change,[3]; [7],+33%
same,Lapatinib AUC 0-inf % change,"[3]; Day 19 with everolimus vs Day 7 alone, listed as Lapatinib",+10%
same,Mean lapatinib Ctrough at steady-state,[3]; alone,800 (95% CI 600–1120) μg/L
same,AUC,"[3]; human, plasma, oral",33900 ng·h/mL
same,AUC,"[3]; human, plasma, oral, 1250 mg",37400 ng·h/mL
same,AUC(0-inf),"[3]; human, plasma, oral, 1250 mg",33900 ng·h/mL
same,Mean lapatinib Ctrough at steady-state,[3]; in combination with everolimus,1060 (95% CI 760–1470) μg/L
same,Differences in steady-state lapatinib PK with or without everolimus co-administration,[3]; paired t-test,no significant influence; also recorded: not statistically significant
CO[C@H]1C[C@@H]2CC[C@@H](C)[C@@](O)(O2)C(=O)C(=O)N2CCCC[C@H]2C(=O)O[C@H]([C@H](C)C[C@@H]2CC[C@@H](OCCO)[C@H](OC)C2)CC(=O)[C@H](C)/C=C(\C)[C@@H](O)[C@@H](OC)C(=O)[C@H](C)C[C@H](C)/C=C/C=C/C=C/1C [everolimus],"Systemic exposure to everolimus, higher with erlotinib than without",[4],17%
same,Maximum tolerated dose (MTD) of everolimus in the combination,[2]; combined with lapatinib 1250 mg,5 mg
same,Everolimus AUC 0-inf % change,[5]; [8],+26%
same,Everolimus Cmax % change,[5]; [8],−5%
same,Everolimus Tmax % change,[5]; [8],44%
same,Everolimus Tmax % change,"[5]; Day 19 with lapatinib vs Day 7 alone, listed as Everolimus",+44%
same,Mean everolimus CL/F at steady-state,[5]; alone,19 (95% CI 14–24) L/hr
same,AUC,"[5]; human, whole blood, oral, 5 mg",348 ng·h/mL
same,AUC(0-inf),"[5]; human, whole blood, oral, 5 mg",348 ng·h/mL
same,Cmax,"[5]; human, whole blood, oral, 5 mg",37 ng/mL
same,Tmax,"[5]; human, whole blood, oral, 5 mg, Day 7, everolimus alone",1.6 h
same,Tmax,"[5]; human, whole blood, oral, Day 19, everolimus + lapatinib",2.3 h
same,Mean everolimus CL/F at steady-state,[5]; in combination with lapatinib,14 (95% CI 11–18) L/hr
same,Decrease of mean everolimus CL/F,"[5]; in combination with lapatinib vs alone, p=0.08",25%
same,PK differences when everolimus was given in combination with lapatinib,[5]; paired t-test,did not reach statistical significance
same,Increase of everolimus Cmax by imatinib,[6],2.2 fold
same,Increase of everolimus mean AUC by imatinib,[6],3.7 fold
C#Cc1cccc(Nc2ncnc3cc(OCCOC)c(OCCOC)cc23)c1 [erlotinib],Pharmacokinetics of erlotinib with or without everolimus,[4],similar
